Reference: patent US10201556B2, “Combination for use in treating diseases or conditions associated with melanoma, or treating diseases or conditions associated with activated B-raf pathway” (InteRNA Technologies B.V., priority 2012, dated 2019)
Like-named read-outs stand apart in the source and are kept apart here.

Legend:
[1] = tested on: BRAFV600E mutant melanoma cell lines SKMEL-28, SKMEL-57 and M249; assay: MTS cell viability after miR-3157 mimic transfection, vemurafenib-sensitive lines; format: cell-based; conditions: SKMEL-28, SKMEL-57, M249; 10 nM mimic, 72 hours (FIG. 11a)
Experimental: (§1) miR-3157 broadly affects melanoma cell line viability. Melanoma cell lines were divided into those that have the BRAFV600E mutation and are sensitive (a), intrinsically resistant (b) or acquired resistance to vemurafenib (c). Cell lines were transfected in triplicate with control miRNA or miR-3157 mimics (10 nM; n=2). Mock is transfectant only. Cell viability was determined using the MTS assay and calculated relative to mock transfected cells.
(§2) A375 cells were obtained from the Hubrecht Institute (Utrecht, The Netherlands); SKMEL-28, A2058 and RPMI-7951 were from the ATCC; SKMEL-57 was a gift from Dr. Patricia Groenen (Radboud University Nijmegen Medical Centre, The Netherlands); for cell line characteristics of M249, M249-AR4, M233 and M376 see (Atefi et al. 2011). A375-R, with in vitro acquired resistance to vemurafenib, was established in our lab by clonal selection of cells continually exposed to 1 μM vemurafenib. A375, A375-R, SKMEL-28, A2058 and SKMEL-57 were grown in DMEM GlutaMAX™-I (Gibco®), all other cell lines in RPMI-1640 (Gibco®). Media was supplemented with 10% FBS (Sigma), and cells were maintained in a humidified 37° C. incubator (Thermo Scientific) with 5% CO2. […]
(§3) Cells were seeded in 96-well plates and transfected the next day. […] Read-out was performed at 490 nm on a Multiskan FC plate reader (Thermo Scientific) at 72 hours post transfection.

[2] = tested on: BRAFV600E mutant melanoma cell lines A2058, RPMI-7951 and M233; assay: MTS cell viability after miR-3157 mimic transfection, intrinsically resistant lines; format: cell-based; conditions: A2058, RPMI-7951, M233; 10 nM mimic, 72 hours (FIG. 11b)
Experimental: as §1, §2, §3

[3] = tested on: A375-R, M249-AR4 and M376; assay: MTS cell viability after miR-3157 mimic transfection, acquired resistance lines; format: cell-based; conditions: 10 nM mimic, 72 hours (FIG. 11c)
Experimental: as §1, §2, §3

[4] = tested on: mRNA levels in A375 cells; assay: RNA sequencing (transcriptome) of transfected A375 cells; format: cell-based, human; conditions: 100 nM mimic
Experimental: A375 cells were plated in duplo in a 6-well plate at 1.5×10^5 cells/well. The next day, cells were transfected with 100 nM miR-3157 or Negative Control #2 mimics, using 15 μl X-tremeGENE. This procedure (plating and transfection) was repeated three times to generate biological replicates. After 72 hrs, total RNA was isolated using TRI reagent (Sigma-Aldrich) according to the manufacturer's protocol. From 30 μg total RNA, the mRNA was isolated using the MicroPoly(A)Purist kit (Ambion), and the mRNA-ONLY Eukaryotic mRNA Isolation Kit (Epicenter). RNAseq libraries were further prepared using the SOLiD™ Total RNA-Seq Kit (Life Technologies (LT)). Fragmentation of the isolated mRNA was performed by incubation in 20 μl 3 mM MgCl/10 mM Tris pH8, for 15 minutes at 95° C. The fragmented mRNA was incubated with SOLiD™ Adapter mix (LT) in STAR hybridization solution (LT), and incubated for 5 minutes at 65° C. After incubation on ice, adapter ligation was performed according to the STAR protocol (LT). The samples were run on a 10% denaturing polyacrylamide gel, and fragments from 180-300 nucleotides were excised. Reverse transcription and PCR amplification of the libraries was performed according to the STAR protocol, followed by excision of 200 to 300 nucleotide fragments from a 6% native polyacrylamide gel. Sequencing of the fragments was performed on the SOLiD™ System (LT). […]

3′UTR of AURKB = assay: 3′UTR Luciferase assay in HeLa cells; format: cell-based; conditions: 10 nM mimic, 24 hrs
Experimental: (§4) The 3′UTR sequences (Table 11) were synthesized by IDT Technologies, and cloned into psiCHECK™-2 (Promega). HeLa cells (5×10^4) were seeded in 24-well plates, and the next day transfected with 100 ng/well 3′UTR psiCHECK™-2 construct and 10 nM miR-3157 mimics, or control miRNA using Lipofectamine 2000 Transfection Reagent (Invitrogen). After 24 hrs cells were lysed using Passive Lysis Buffer and luciferase activity was measured using the Dual-Luciferase Reporter Assay System (Promega) and the Glomax-Multi Detection system (Promega) in a 96-well format according to the manufacturer's protocol. The Renilla luciferase signal was normalized to background Firefly luciferase, and changes in Renilla luciferase activity in the miR-3157 transfected cells calculated relative to the Renilla signal in control mimic transfected cells.

3′UTR of ERK1 = assay: 3′UTR Luciferase assay in HeLa cells; format: cell-based; conditions: 10 nM mimic, 24 hrs
Experimental: as §4

3′UTR of RRM2 = assay: 3′UTR Luciferase assay in HeLa cells; format: cell-based; conditions: 10 nM mimic, 24 hrs
Experimental: as §4

phospho-ERK1/2 = conditions: cited from earlier work

Row | Compound | cell viability relative to mock transfected cells [1] | cell viability relative to mock transfected cells [2] | cell viability relative to mock transfected cells [3] | decrease of mRNA levels of CDK4, BCL2 and BIRC5 in the RNAseq analysis ([4]; 72 hrs) [%] | predicted targets with reduced mRNA levels ([4]; change at least 60%, p<10^-5, in silico target prediction) [genes] | luciferase activity, AURKB 3′UTR with mutated miR-3157 binding site (3′UTR of AURKB) | luciferase activity, AURKB 3′UTR unmodified (3′UTR of AURKB; relative to control mimic) | luciferase activity, ERK1 3′UTR with mutated miR-3157 binding site (3′UTR of ERK1) | luciferase activity, ERK1 3′UTR unmodified (3′UTR of ERK1; relative to control mimic) | luciferase activity, RRM2 3′UTR with mutated miR-3157 binding site (3′UTR of RRM2) | luciferase activity, RRM2 3′UTR unmodified (3′UTR of RRM2; relative to control mimic) | pERK (phospho-ERK1/2; A375, A2058 and M249 (Atefi et al. 2011, Nazarian et al. 2010)) | pERK (phospho-ERK1/2; M249-AR4 and M376 (Atefi et al. 2011, Nazarian et al. 2010))
1 | hsa-miR-3157-5p: mature miRNA mimic, SEQ ID NO 6 UUCAGCCAGGCUAGUGCAGUCU (listed as RNA, chemistry not given here) | strongly reduced cell viability | viability was reduced | reduced viability | 60 | 145 | remained unaffected | reduced luciferase activity | remained unaffected | reduced luciferase activity | remained unaffected | reduced luciferase activity |  | 
2 | CCCS(=O)(=O)Nc1ccc(F)c(C(=O)c2c[nH]c3ncc(-c4ccc(Cl)cc4)cc23)c1F [Vemurafenib, N-(3-{[5-(4-chlorophenyl)-1H-pyrrolo[2,3-b]pyridin-3-yl]carbonyl}-2,4-difluorophenyl)propane-1-sulfonamide] |  |  |  |  |  |  |  |  |  |  |  | downregulates | not
